{"source": "paper doi:10.1101/2025.01.23.634542", "about": "“Convergent Agonist and Heat Activation of Nociceptor TRPM3” (bioRxiv, 2025)", "key": {"[1]": {"biological_target": "wild-type rabbit TRPM3 (rTRPM3) (Oryctolagus cuniculus, UniProt G1T6W8)", "sequence (G1T6W8 entry or part of it)": "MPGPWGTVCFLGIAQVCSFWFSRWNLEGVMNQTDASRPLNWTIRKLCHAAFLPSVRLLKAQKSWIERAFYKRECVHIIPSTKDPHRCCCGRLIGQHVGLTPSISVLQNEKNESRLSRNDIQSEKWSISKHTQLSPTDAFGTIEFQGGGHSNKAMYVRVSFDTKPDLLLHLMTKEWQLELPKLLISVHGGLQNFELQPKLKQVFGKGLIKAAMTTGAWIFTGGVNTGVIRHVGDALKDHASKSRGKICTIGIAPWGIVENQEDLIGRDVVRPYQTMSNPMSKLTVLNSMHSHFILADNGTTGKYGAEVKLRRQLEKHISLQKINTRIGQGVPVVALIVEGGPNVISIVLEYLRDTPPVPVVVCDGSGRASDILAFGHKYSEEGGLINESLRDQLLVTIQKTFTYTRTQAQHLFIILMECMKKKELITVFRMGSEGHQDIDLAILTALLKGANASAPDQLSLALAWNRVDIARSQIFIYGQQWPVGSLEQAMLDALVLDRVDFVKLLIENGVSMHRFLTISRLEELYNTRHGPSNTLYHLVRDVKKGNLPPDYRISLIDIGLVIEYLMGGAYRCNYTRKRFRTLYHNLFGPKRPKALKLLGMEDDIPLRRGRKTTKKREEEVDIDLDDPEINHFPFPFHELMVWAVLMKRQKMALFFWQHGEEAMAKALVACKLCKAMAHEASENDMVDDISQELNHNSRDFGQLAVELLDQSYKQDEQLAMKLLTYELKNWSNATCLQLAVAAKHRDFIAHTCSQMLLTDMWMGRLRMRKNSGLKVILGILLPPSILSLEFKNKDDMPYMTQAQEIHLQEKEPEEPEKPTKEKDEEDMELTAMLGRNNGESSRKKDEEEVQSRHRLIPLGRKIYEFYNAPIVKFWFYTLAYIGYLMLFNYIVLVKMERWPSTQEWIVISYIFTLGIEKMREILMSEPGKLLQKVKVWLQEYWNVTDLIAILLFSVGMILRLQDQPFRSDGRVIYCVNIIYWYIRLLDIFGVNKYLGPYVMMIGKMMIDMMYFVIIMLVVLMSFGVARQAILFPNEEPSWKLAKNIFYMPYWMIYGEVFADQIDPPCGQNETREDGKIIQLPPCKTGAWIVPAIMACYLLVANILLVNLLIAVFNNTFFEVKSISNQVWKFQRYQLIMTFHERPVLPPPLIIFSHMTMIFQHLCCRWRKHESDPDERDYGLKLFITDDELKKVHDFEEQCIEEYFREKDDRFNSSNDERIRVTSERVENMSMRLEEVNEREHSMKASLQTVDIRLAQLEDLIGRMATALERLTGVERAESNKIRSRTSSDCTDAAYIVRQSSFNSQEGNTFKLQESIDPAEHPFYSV", "test": "Whole-cell patch-clamp agonist dose-response, wild-type TRPM3 in tsA cells", "type": "cell-based", "conditions": "WT TRPM3, whole-cell current at +80 mV"}, "[2]": {"tested_on": "TRPM3 mutants at the interface between the MHR1/2 domain and the rib helix", "test": "Agonist sensitivity of mutants at the MHR1/2 domain-rib helix interface relative to wild type", "type": "cell-based, rabbit", "conditions": "interface mutants versus wild type, maximum fold"}, "[3]": {"tested_on": "TRPM3 CIM0216 binding site mutants", "test": "CIM0216-induced whole-cell currents in CIM0216 binding site mutants", "type": "cell-based, rabbit", "conditions": "whole-cell currents at +140 mV, 22 °C (Fig. 1c)", "description": "Figure 1: TRPM3 activation by superagonist CIM0216. a, Structure of TRPM3 in complex with CIM0216, shown in cartoon representation and viewed parallel to the membrane. CIM0216 (green) is fitted into the cryo-EM density map (right panel). One subunit is highlighted in red, and the rib helix from the adjacent subunit is highlighted in cyan. b, Close-up view of the CIM0216 binding site, detailing key interactions. c, Whole-cell currents measured in tsA cells overexpressing wild-type TRPM3 or CIM0216 binding site mutants at 22 °C. […] CIM0216-induced current amplitudes at +140 mV were calculated by subtracting the steady-state current recorded before CIM0216 application from the steady-state current recorded after CIM0216 application. Each point represents a single cell (from left to right, n = 6, 4, 5, 4, 4, 4, 4, 4, 4, 5), with bars indicating the mean. Statistical analysis was performed using one-way ANOVA with Bonferroni’s post hoc test (***P < 0.001). d, Structural comparison of CIM0216-bound activated state (red) and apo resting state (blue), superimposed using the TMD (residues 848–1119). Root-mean-square deviations (r.m.s.d.) are shown for individual domains. Black arrows indicate the approximate direction of domain movements."}, "wild-type TRPM3": {"tested_on": "wild-type TRPM3", "test": "Primidone inhibition of heat-activated whole-cell currents, wild-type TRPM3", "type": "cell-based, rabbit", "conditions": "WT TRPM3, heat-activated whole-cell currents at 37 °C with primidone (Fig. 4d)"}, "[4]": {"tested_on": "TRPM3 primidone binding site mutants", "test": "Primidone inhibition of PregS-induced currents in primidone binding site mutants", "type": "cell-based, rabbit", "conditions": "PregS-induced currents with and without primidone, 22 °C (Fig. 4c)"}}, "note": "pEC50: −log10 of the molar value.", "data": [{"molecule": "Cc1cc(NC(=O)C(c2ccccc2)N2CCCc3ccccc32)no1", "note": "(stereo not drawn) [CIM0216]", "values": [{"measurement": "pEC50", "setting": "[1]", "result": 6.15}, {"measurement": "Higher sensitivity of mutants to agonist in dose-response experiments", "setting": "[2]", "result": "up to 3 fold"}, {"measurement": "Effect of alanine substitutions at key binding residues on CIM0216-evoked currents", "setting": "[3]", "result": "diminished or abolished"}]}, {"molecule": "CCC1(c2ccccc2)C(=O)NCNC1=O", "note": "[primidone]", "values": [{"measurement": "Effect on heat-induced channel activation", "setting": "wild-type TRPM3", "result": "effectively suppresses heat-induced channel activation"}, {"measurement": "Effect of alanine substitutions at key binding residues on the inhibitory effect", "setting": "[4]", "result": "markedly reduced or abolished"}]}, {"molecule": "pregnenolone sulfate [PregS]", "values": [{"measurement": "Higher sensitivity of mutants to agonist in dose-response experiments", "setting": "[2]", "result": "up to 13 fold"}]}]}
